Where two headings read alike, the source gives them in different places.
Tests used:
[1] = system: MDA-MB-231 xenograft tumors; experiment: Tumor growth inhibition assay, MDA-MB-231 tumor xenograft model; assay type: in vivo, BALB/c nude mice; settings: for tumor inhibitory rate: day 18, n = 6; for mean tumor volume: day 18, vehicle group 285.00 ± 30.82 mm^3
Experimental: MDA-MB-231 cells (2 × 10^7) were suspended in 200 μL of PBS (pH 7.4) and were inoculated subcutaneously into the second mammary fat pads of the nude mice. The tumor diameter was measured with a vernier caliper and converted into tumor volume using the formula 1/2 × A × B^2 (A = larger diameter, B = smaller diameter). The treatment was started when the average tumor volume reached 50 mm^3.
Xenograft mice were randomly divided into three groups, with six in each group. […] The blank control group received only the vehicle solution. The tumor size and body weight were measured every three days. After 18 days of treatment, the animals were euthanized by cervical displacement. The tumors were collected after the final treatment and frozen at −80 °C until use.

[2] = Pharmacokinetic study in tumor-bearing nude mice (LC-MS/MS); assay type: in vivo; settings: plasma; for AUC(0-inf) / AUC(0-t) / Cmax / Tmax / half-life / MRT: nude, mouse; for MRT: read-out: MRT (mean resident time)
Experimental: Data processing was performed with Phoenix WinNonlin 8.1.0.3530 (Pharsight Corporation, Mountain View, CA, USA).

[3] = system: p-MET; experiment: Immunohistochemical staining (IOD) of p-MET in tumor tissue; assay type: in vivo, nude mice (MDA-MB-231 human breast cancer xenograft); settings: 15 and 50 mg/kg for 18 days
[4] = system: HGF; experiment: Immunohistochemical staining (IOD) of HGF in tumor tissue; assay type: in vivo, nude mice (MDA-MB-231 human breast cancer xenograft); settings: 15 and 50 mg/kg for 18 days
Experimental: After the paraffin sections of tumors were deparaffinized, rehydrated, and washed with PBS (pH 7.4), antigen retrieval was performed by boiling the sections in 10 mmol/L sodium citrate buffer (pH 6.0) in the microwave for 4 min. The endogenous peroxidase activity was quenched by placing the slides in 3% hydrogen peroxide in methanol. The slides were then blocked with 3% BSA-PBS, followed by incubation with a 1:425 dilution of the primary antibody of p-MET and HGF (Cell Signaling Technology, Danvers, MA, USA) overnight at 4 °C. Thereafter, the detection was performed using a biotin-conjugated secondary antibody and a streptavidin-horseradish peroxidase conjugate (SA-HRP), followed by colorimetric detection using diaminobenzidine (DAB). The sections were counterstained with hematoxylin and stabilized with a mounting medium. The immunohistochemical images with integrated optical density (IOD) of positive expression, which reflected the distribution characteristics of anti-p-MET and anti-HGF positive stained area in tumor tissues, were quantitatively analyzed using Image-Pro Plus version 6.0 (Media Cybernetics, Inc., Silver Spring, MD, USA).

[5] = system: MET mRNA; experiment: Real-time PCR of MET mRNA in MDA-MB-231 cells; assay type: cell-based, human; settings: in vitro
Experimental: (§1) In vitro, MDA-MB-231 cells were prepared as described above. […] Tumors were obtained from three mice per group at 0, 3, 6, 9, and 12 days. The total RNA was extracted using an RNA isolation kit (Takara, Shiga, Japan) according to the manufacturer’s instructions. cDNA was synthesized from 2 μg of RNA using a reverse transcriptase M-MLV synthesis kit (Takara). Real-time PCR was performed using the MyiQ5 real-time PCR detection system (Bio-Rad) with SYBR Premix Ex Taq (Takara). The PCR products for human β-actin, […], and HGF were synthesized with the primer pairs FP (forward primer) 5′-[…]-3′ and RP (reverse primer) 5′-[…]-3′ (β-actin, Gene ID: 60), FP 5′-[…]-3′ and RP 5′-[…]-3′ (MET, Gene ID: 4233), as well as FP 5′-[…]-3′ and RP 5′-[…]-3′ (HGF, Gene ID: 3082). All primers were purchased from AuGCT DNA-SYN Biotechnology Co., Ltd. (Dalian, China). Samples were run in triplicate under the following conditions: an initial denaturation for 30 s at 95 °C, followed by 45 cycles of 15 s at 95 °C, 30 s at 60 °C, and 33 s at 72 °C. The levels of gene expression in each sample were normalized to β-actin mRNA.

[6] = system: HGF mRNA; experiment: Real-time PCR of HGF mRNA in MDA-MB-231 cells; assay type: cell-based, human; settings: in vitro
Experimental: as §1

[7] = system: MET mRNA; parameters: species or system nude mice (MDA-MB-231 human breast cancer xenograft); settings: in vivo
[8] = system: HGF mRNA; experiment: Real-time PCR of HGF mRNA in MDA-MB-231 xenograft tumors; assay type: in vivo, nude mice (MDA-MB-231 human breast cancer xenograft); parameters: dose or concentration left out as unconfirmed; settings: tumors at 0, 3, 6, 9, 12 days
Experimental: as §1

[9] = system: MDA-MB-231 cells; settings: in vitro, cited from earlier work
[10] = system: p-MET; settings: cited from earlier work
[11] = system: MET; settings: cited from earlier work

## COc1cc2c(Oc3ccc(NC(=O)C4(C(=O)Nc5ccc(F)cc5)CC4)cc3F)ccnc2cc1OCCCN1CCOCC1 [Foretinib]
[1]; 15 mg/kg/day intragastric
  tumor inhibitory rate: 42.79 ± 8.52%
[1]; 50 mg/kg/day intragastric
  tumor inhibitory rate: 79.16 ± 4.58%
[1]; high dose group (50 mg/kg/day)
  mean tumor volume: 80.67 ± 17.00 mm^3
[1]; low dose group (15 mg/kg/day)
  mean tumor volume: 220.00 ± 70.14 mm^3
[2]; single oral dose 2 mg/kg
  AUC(0-inf): 407 ± 63.4 ng·h/mL
  AUC(0-t): 366 ± 76.4 ng·h/mL
  Cmax: 22.2 ± 11.2 ng/mL
  Tmax: 4 h
  half-life: 15.1 ± 2.49 h
  MRT: 20.1 ± 5.05 h
  Vd (volume of distribution): 109.72 ± 34.73 L/kg
  k (elimination constant): 0.046 ± 0.008 h⁻¹
[2]; single oral dose 10 mg/kg
  AUC(0-inf): 7260 ± 108 ng·h/mL
  AUC(0-t): 6210 ± 423 ng·h/mL
  Cmax: 334 ± 107 ng/mL
  Tmax: 2 h
  half-life: 19.9 ± 6.72 h
  MRT: 25.1 ± 8.36 h
  Vd (volume of distribution): 39.76 ± 13.95 L/kg
  k (elimination constant): 0.037 ± 0.012 h⁻¹
[2]; single oral dose 50 mg/kg
  AUC(0-inf): 13000 ng·h/mL
  AUC(0-t): 12600 ng·h/mL
  Cmax: 1430 ± 744 ng/mL
  Tmax: 0.5 h
  half-life: 9.48 ± 0.045 h
  MRT: 13.3 ± 0.73 h
  Vd (volume of distribution): 60.90 ± 31.53 L/kg
  k (elimination constant): 0.073 ± 0.0003 h⁻¹
[3]
  p-MET expression in the tumor tissues (IHC staining, IOD): decreased in a dose-dependent manner
[4]
  HGF expression in the tumor tissues (IHC staining, IOD): decreased in a dose-dependent manner
[5]
  mRNA expression level of MET: effectively suppressed
[6]
  mRNA expression level of HGF: effectively suppressed
[7]
  mRNA expression level of MET: effectively suppressed
[8]
  mRNA expression level of HGF: effectively suppressed
[9]; MDA-MB-231 cells
  apoptosis: induce marked apoptosis
  cell cycle arrest: arrest cancer cells mainly in the G2/M phase
[9]
  cell viability of MDA-MB-231: can decrease the cell viability
[10]
  expression of p-MET in MDA-MB-231: remarkably inhibit
[11]
  expression of MET in MDA-MB-231: remained unchanged

— PMC9821162 (International Journal of Molecular Sciences, 2023)
